Publication PMC9133015 (Nature Communications, 2022)
“And” between values parts separate entries of the source, which are not always exact repeats. Equal values may be shown once. Read-outs that look alike come from different tables or passages of the source.

Tests used:
[1] = Pharmacokinetic profiles; type: in vivo; conditions: rat, SD rats; for MRT inf: read-out: MRT0-∞
[2] = biological target: T1, DYRK2 protein (Homo sapiens, UniProt Q92630); assay: Microscale thermophoresis binding assay; conditions: for Fnorm: triplicates
T1 construct: 6xHis (N, cleaved yes); TEV protease cleavage site (N, cleaved yes); made in house; host or cells: E. coli BL21 (DE3)
T1 sequence (Q92630 72-479 isoform Q92630-2): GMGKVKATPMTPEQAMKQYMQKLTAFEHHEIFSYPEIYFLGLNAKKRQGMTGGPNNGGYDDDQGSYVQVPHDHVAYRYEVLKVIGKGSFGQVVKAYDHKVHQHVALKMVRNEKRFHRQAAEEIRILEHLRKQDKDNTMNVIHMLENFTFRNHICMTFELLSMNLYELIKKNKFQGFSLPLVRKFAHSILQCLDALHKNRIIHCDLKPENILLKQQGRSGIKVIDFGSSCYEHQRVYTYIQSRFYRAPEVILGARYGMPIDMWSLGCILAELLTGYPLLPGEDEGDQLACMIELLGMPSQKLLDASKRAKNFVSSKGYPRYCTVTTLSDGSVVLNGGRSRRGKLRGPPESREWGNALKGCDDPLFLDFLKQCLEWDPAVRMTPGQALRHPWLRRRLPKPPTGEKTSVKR

[3] = SD, serum, po, 10 mg/kg, PO 10 mg/kg, read-out: Con. (individual rats NO.1-3)
[4] = SD, serum, po, 10 mg/kg, PO 10 mg/kg, read-out: Con. Mean
[5] = Sprague-Dawley, serum, iv, 1 mg/kg, IV 1 mg/kg, read-out: Con. (individual rats NO.1-3)
[6] = Sprague-Dawley, serum, iv, 1 mg/kg, IV 1 mg/kg, read-out: Con. Mean

SMILES: CCN1CCN(C(=O)c2ccc(Nc3ncc(F)c(-c4ccc5nc(N(C)C)sc5c4)n3)nc2)CC1 [YK-2-69]
- concentration at 4 h [1, 3]: 684 ng/mL
- concentration at 4 h [1, 4]: 663 ng/mL
- concentration at 6 h [1, 3]: 685 ng/mL
- concentration at 6 h [1, 4]: 589 ng/mL
- concentration at 8 h [1, 3]: 507 ng/mL
- concentration at 8 h [1, 4]: 483 ng/mL
- concentration at 12 h [1, 3]: 309 ng/mL
- concentration at 12 h [1, 4]: 269 ng/mL
- concentration at 24 h [1, 3]: 67.9 ng/mL
- concentration at 24 h [1, 4]: 57.4 ng/mL
- concentration at 0.033 h ([1]; Sprague-Dawley, serum, iv, 1 mg/kg, IV 1 mg/kg, 0.033 h, read-out: Con. Mean): 974 ng/mL
- concentration at 0.083 h [1, 5]: 811 ng/mL
- concentration at 0.083 h [1, 6]: 781 ng/mL
- concentration at 0.25 h [1, 5]: 560 ng/mL
- concentration at 0.25 h [1, 6]: 524 ng/mL
- concentration at 0.5 h [1, 5]: 399 ng/mL
- concentration at 0.5 h [1, 6]: 421 ng/mL
- concentration at 1 h [1, 5]: 265 ng/mL
- concentration at 1 h [1, 6]: 310 ng/mL
- concentration at 12 h ([1]; in vivo, IV 1 mg/kg, read-out: Con. (individual rats NO.1-3)): 19.8 ng/mL
- AUC(0-inf) ([1]; serum, IV 1 mg/kg): 1500 ng·h/mL
- Cmax ([1]; serum, IV 1 mg/kg): 974 ng/mL
- Tmax ([1]; serum, IV 1 mg/kg): 0.0333 h
- clearance ([1]; serum, IV 1 mg/kg): 11.2 mL/min/kg
- half-life ([1]; serum, IV 1 mg/kg): 3 h
- MRT inf ([1]; serum, IV 1 mg/kg): 3.5 h
- AUC(0-inf) ([1]; serum, PO 10 mg/kg): 8380 ng·h/mL
- Cmax ([1]; serum, PO 10 mg/kg): 674 ng/mL
- Tmax ([1]; serum, PO 10 mg/kg): 4 h
- half-life ([1]; serum, PO 10 mg/kg): 5 h
- bioavailability ([1]; serum, PO 10 mg/kg vs IV 1 mg/kg, read-out: F (oral bioavailability)): 56%
- MRT inf ([1]; serum, PO 10 mg/kg): 8.9 h
- Kd [2]: 92 nM
- Fnorm ([2]; Ligand Concentration 1.52588e-9 M): 967.581 ‰ and 966.546 ‰ and 966.864 ‰
- Fnorm ([2]; Ligand Concentration 3.05176e-9 M): 966.58 ‰ and 965.007 ‰ and 967.223 ‰
- Fnorm ([2]; Ligand Concentration 6.10352e-9 M): 966.992 ‰ and 966.91 ‰ and 966.101 ‰
- Fnorm ([2]; Ligand Concentration 1.2207e-8 M): 967.371 ‰ and 966.328 ‰ and 967.725 ‰
- Fnorm ([2]; Ligand Concentration 2.44141e-8 M): 967.449 ‰ and 966.053 ‰ and 966.951 ‰
- Fnorm ([2]; Ligand Concentration 4.88281e-8 M): 966.087 ‰ and 966.251 ‰ and 967.971 ‰
- Fnorm ([2]; Ligand Concentration 9.76563e-8 M): 964.723 ‰ and 963.783 ‰ and 964.77 ‰
- Fnorm ([2]; Ligand Concentration 1.95313e-7 M): 965.362 ‰ and 964.006 ‰ and 962.948 ‰
- Fnorm ([2]; Ligand Concentration 3.90625e-7 M): 961.623 ‰ and 962.98 ‰ and 964.971 ‰
- Fnorm ([2]; Ligand Concentration 7.8125e-7 M): 963.524 ‰ and 964.437 ‰ and 962.941 ‰
- Fnorm ([2]; Ligand Concentration 1.5625e-6 M): 963.3 ‰ and 963.031 ‰ and 962.056 ‰
- Fnorm ([2]; Ligand Concentration 3.125e-6 M): 962.439 ‰ and 962.002 ‰ and 962.785 ‰
- Fnorm ([2]; Ligand Concentration 6.25e-6 M): 962.791 ‰ and 963.606 ‰ and 963.319 ‰
- Fnorm ([2]; Ligand Concentration 1.25e-5 M): 961.109 ‰ and 965.797 ‰ and 962.38 ‰
- Fnorm ([2]; Ligand Concentration 2.5e-5 M): 962.063 ‰ and 963.029 ‰ and 959.958 ‰
- Fnorm ([2]; Ligand Concentration 5e-5 M): 962.013 ‰ and 961.244 ‰ and 962.047 ‰
